Six compounds from ChEMBL document CHEMBL1156694, “In silico screening of HIV-1 non-nucleoside reverse transcriptase and protease inhibitors” (Eur J Med Chem, 2008) can be followed below.

Experiment [1] is described as follows: Inhibition of HIV reverse transcriptase. Set-up: species or system Human immunodeficiency virus.
In another experiment the target is Protease (Human immunodeficiency virus 1, UniProt Q9YQ12). Nature of the experiment: Inhibition of HIV1 protease.
Experiment [2] can be described thus: Inhibition of HIV protease. Set-up: species or system Human immunodeficiency virus.

Protease, sequence (Q9YQ12 whole entry): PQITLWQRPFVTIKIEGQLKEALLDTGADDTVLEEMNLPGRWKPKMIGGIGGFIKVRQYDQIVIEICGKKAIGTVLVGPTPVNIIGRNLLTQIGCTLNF

In the case of `CC(C)n1nc(COC(N)=O)c(Cc2ccncc2)c1Sc1cc(Cl)cc(Br)c1`, in experiment [1], the IC50 – broadly, the concentration needed to halve the response being measured – came out at 32 nM.

`C=CCn1c(CSc2nc3ccccc3s2)nnc1SCC(=O)NCc1cccnc1` yielded an IC50 in experiment [1] of under 100000 nM.

As to `Cc1c(O)cccc1C(=O)N[C@@H](Cc1ccccc1)[C@H](O)CN(CC(C)C)S(=O)(=O)c1ccc2ncsc2c1`, the IC50 at Protease is under 10 nM.

`CC(C)(C)OC(=O)N[C@@H](Cc1ccccc1)[C@@H](O)[C@@]1(Cc2ccccc2)NC=C([C@H]2c3ccccc3C[C@@H]2O)C1=O`: the concentration for half-maximal inhibition (IC50) in experiment [2] was determined as 12 nM.

For `Cc1cc(C)c(-n2nnnc2SCC(=O)Nc2ccccc2Cl)c(C)c1`, in experiment [1], half-maximal inhibition (IC50) required 5 nM.

Take `CCOC(=O)Cc1nnc(NC(=O)[C@@H](CC)Sc2nnnn2-c2ccccc2)s1`: in experiment [1], the IC50 worked out at 50 nM.
